In the supplement of paper PMC11061612 one finds Bliss excess data, which are given here for seven compounds.

Common to all, as to assay: Bliss excess, mean over the matrix (fraction); higher = more synergy
One assay relates to D-263MG (Glioblastoma). In short, it runs like this: (§1)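 After 24 hours at 37°C and 5% CO2 in 1536-well plates, cells in DMEM/F12 or RPMI plus 10% FBS received two-drug dose matrices for 72 hours. Viability came from CellTiter-Glo 2.0 luminescence and was scaled as inhibition, anchored at 0 by vehicle wells and at 1 by blank wells. Combination Emax is taken as the second-highest inhibition in the matrix, and Bliss excess as the observed combination effect less EA + EB − EA·EB, with EA and EB the single-agent effects.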

Assay [1] concerns EFM-19 (Breast Carcinoma). Summed up: as §1
The next assay relates to EW-24 (Ewing's Sarcoma). In short, it runs like this: as §1
Assay [2] relates to EoL-1-cell (Acute Myeloid Leukemia). In short, it runs like this:
as §1

Assay [3] relates to HSC-4 (Oral Cavity Carcinoma). Summed up: as §1
For assay [4], the system named is Hs-766T (Pancreatic Carcinoma). Summed up: as §1
For assay [5], the system named is KMOE-2 (Acute Myeloid Leukemia). Summed up:
as §1

In assay [6] the test system is LU-65 (Non-Small Cell Lung Carcinoma). In short, it runs like this:
as §1

In the next assay the test system is NB69 (Neuroblastoma). Summed up:
as §1

Assay [7] concerns NCI-H1915 (Non-Small Cell Lung Carcinoma). Summed up: as §1
The subject of assay [8] is NCI-H358 (Lung Adenocarcinoma). In short, it runs like this: as §1
In assay [9] the test system is NEC8 (Other Solid Carcinomas). In short, it runs like this:
as §1

In assay [10] the test system is NUGC-3 (Gastric Carcinoma). Summed up:
as §1

Assay [11] concerns OE19 (Esophageal Adenocarcinoma). In short, it runs like this:
as §1

Assay [12] relates to OSC-20 (Oral Cavity Carcinoma). In short, it runs like this: as §1
In assay [13] the test system is OVCAR-4 (Ovarian Carcinoma). Summed up:
as §1

The test system of another assay is PWR-1E (Non-Cancerous). Summed up: as §1
For assay [14], the system named is SCC-15 (Oral Cavity Carcinoma). In short, it runs like this:
as §1

For assay [15], the system named is TE-1 (Esophageal Squamous Cell Carcinoma). Summed up:
as §1

In another assay the test system is TK10 (Kidney Carcinoma). In short, it runs like this: as §1

Molecules are shown by their SMILES.

On to `NC1(C(=O)N[C@@H](CCO)c2ccc(Cl)cc2)CCN(c2ncnc3[nH]ccc23)CC1` [Capivasertib] + Cn1cnc2c(F)c(Nc3ccc(Br)cc3Cl)c(C(=O)NOCCO)cc21 [Selumetinib] (first compound max 10 µM, 7x7, partner max 10 µM), for which the Bliss excess is 0.0028 in the assay with D-263MG (Glioblastoma); -0.034 in assay [1]; -0.0223 in the assay on EW-24 (Ewing's Sarcoma); 0.077 in [2]; -0.0133 in [3]; -0.0045 in [4]. For the same compound, the Bliss excess in assay [5] is 0.0417; in assay [6], -0.0119; in the assay with NB69 (Neuroblastoma) it was 0.0278; in assay [7], 0.0366; in assay [8], -0.0396; in assay [9], 0.0013. Moreover, the Bliss excess in [10] was -0.0007; in [11], 0.0786; in assay [12] it was 0.0384; in [13], -0.0254; with PWR-1E (Non-Cancerous) it was -0.0246; in assay [14], -0.0334. Also, the Bliss excess in assay [15] turned out to be 0.0059; in the assay with TK10 (Kidney Carcinoma), 0.0043.
With `COc1cccc2c1C(=O)c1c(O)c3c(c(O)c1C2=O)C[C@@](O)(C(=O)CO)C[C@@H]3O[C@H]1C[C@H](N)[C@H](O)[C@H](C)O1` [Doxorubicin] + Cc1cc2ncnn2cc1Nc1ncc2c(n1)n(C1CCOCC1)c(=O)n2C [AZD7648] (first compound max 1 µM, 7x7, partner max 10 µM), the Bliss excess with D-263MG (Glioblastoma) was 0.032; in assay [1], 0.0055; in the assay with EW-24 (Ewing's Sarcoma), 0.0145; in assay [2], 0.155; in [3] it was 0.0047; in assay [4], -0.012. Moreover, the Bliss excess in [5] turned out to be 0.0867; in assay [6], 0.0418; in the assay on NB69 (Neuroblastoma), 0.0516; in assay [7], 0.0154; in assay [8], 0.0186; in [9], 0.0952. Further, the Bliss excess in [10] was 0.0285; in assay [11], 0.0189; in [12], 0.0204; in assay [13] it was -0.0056; with PWR-1E (Non-Cancerous), 0.12; in assay [14] it was 0.0028. Besides, the results for the Bliss excess (in assay [15]; in the assay with TK10 (Kidney Carcinoma)) were -0.022 and 0.0138, respectively.
Regarding `CS(=O)(=O)CCNCc1ccc(-c2ccc3ncnc(Nc4ccc(OCc5cccc(F)c5)c(Cl)c4)c3c2)o1` [Lapatinib] + C[C@@H](Oc1cc(-c2cnn(C3CCNCC3)c2)cnc1N)c1c(Cl)ccc(F)c1Cl [Crizotinib] (first compound max 10 µM, 7x7, partner max 10 µM), the Bliss excess is -0.0621 with D-263MG (Glioblastoma); -0.0109 in assay [1]; -0.0105 in the assay on EW-24 (Ewing's Sarcoma); -0.0547 in [2]; -0.0097 in assay [3]; -0.0535 in assay [4]. Besides, the Bliss excess in assay [5] was 0.0174; in assay [6], -0.0236; in the assay with NB69 (Neuroblastoma), -0.0592; in assay [7] it was -0.0169; in assay [8], -0.0522; in assay [9], -0.0234. Further, the Bliss excess in assay [10] is -0.142; in assay [11], -0.007; in assay [12] it was -0.0542; in [13], -0.0231; in the assay with PWR-1E (Non-Cancerous) it was -0.0184; in assay [14] it was -0.0015. Besides, the Bliss excess in assay [15] was 0.0266; with TK10 (Kidney Carcinoma), -0.0655.
Consider `CC(=O)c1c(C)c2cnc(Nc3ccc(N4CCNCC4)cn3)nc2n(C2CCCC2)c1=O` [Palbociclib] + CC1(C)CCC(CN2CCN(c3ccc(C(=O)NS(=O)(=O)c4ccc(NCC5CCOCC5)c([N+](=O)[O-])c4)c(Oc4cnc5[nH]ccc5c4)c3)CC2)=C(c2ccc(Cl)cc2)C1 [Venetoclax] (first compound max 10 µM, 7x7, partner max 1 µM), for which the Bliss excess in the assay on D-263MG (Glioblastoma) is -0.0043; in [1], -0.0475; with EW-24 (Ewing's Sarcoma), 0.0021; in assay [2] it was 0.0515; in [3], -0.0523; in [4], -0.0544. Also, the Bliss excess was -0.015 in assay [5]; -0.0781 in assay [6]; 0.0084 with NB69 (Neuroblastoma); 0.0174 in assay [7]; -0.0862 in assay [8]; -0.0265 in [9]. The Bliss excess in assay [10] was -0.0178; in [11], -0.0449; in assay [12], -0.0545; in assay [13], -0.0523; in the assay on PWR-1E (Non-Cancerous) it was -0.0229; in assay [14] it was -0.0589. Also, the Bliss excess in assay [15] was -0.0385; with TK10 (Kidney Carcinoma) it was -0.0312.
For `CC(=O)c1c(C)c2cnc(Nc3ccc(N4CCNCC4)cn3)nc2n(C2CCCC2)c1=O` [Palbociclib] + Cc1c2c(nn1C)CSCc1cc(n(C)n1)CSc1cc(c3ccccc3c1)OCCCc1c(C(=O)O)n(C)c3c-2c(Cl)ccc13 [AZD5991] (first compound max 10 µM, 7x7, partner max 1 µM), the Bliss excess in the assay on D-263MG (Glioblastoma) was -0.0135; in assay [1], -0.0005; in the assay with EW-24 (Ewing's Sarcoma) it was -0.0178; in assay [2] it was 0.0132; in [3], -0.0729; in assay [4], -0.067. The Bliss excess is -0.0002 in assay [5]; -0.0692 in [6]; 0.0058 with NB69 (Neuroblastoma); -0.0526 in assay [7]; -0.0249 in assay [8]; 0.0111 in assay [9]. For the same compound, the Bliss excess was -0.134 in assay [10]; 0.0014 in assay [11]; -0.0337 in assay [12]; -0.0337 in assay [13]; 0.0128 in the assay with PWR-1E (Non-Cancerous); -0.044 in [14]. The Bliss excess in [15] is -0.0182; in the assay with TK10 (Kidney Carcinoma) it was -0.0228.
As to `CC(=O)c1c(C)c2cnc(Nc3ccc(N4CCNCC4)cn3)nc2n(C2CCCC2)c1=O` [Palbociclib] + Cn1cnc2c(F)c(Nc3ccc(Br)cc3Cl)c(C(=O)NOCCO)cc21 [Selumetinib] (first compound max 10 µM, 7x7, partner max 10 µM), the Bliss excess in the assay with D-263MG (Glioblastoma) is -0.0077; in assay [1] it was -0.0313; in the assay with EW-24 (Ewing's Sarcoma), -0.0617; in assay [2], 0.112; in assay [3], -0.0488; in assay [4], -0.0221. For the same compound, the Bliss excess in assay [5] was -0.0028; in assay [6], 0.0042; with NB69 (Neuroblastoma) it was 0.0829; in assay [7], -0.034; in assay [8], -0.0489; in assay [9], -0.0233. The Bliss excess is -0.0178 in [10]; 0.0203 in assay [11]; -0.0566 in [12]; -0.0471 in [13]; -0.0609 in the assay with PWR-1E (Non-Cancerous); -0.0721 in assay [14]. In addition, the Bliss excess in assay [15] was 0.0048; in the assay on TK10 (Kidney Carcinoma) it was 0.0072.
Regarding `COc1cccc(OCCCN)c1-c1cc(Nc2cnc(C#N)cn2)n[nH]1` [Prexasertib] + C=CCn1c(=O)c2cnc(Nc3ccc(N4CCN(C)CC4)cc3)nc2n1-c1cccc(C(C)(C)O)n1 [AZD1775] (first compound max 1 µM, partner max 1 µM), the Bliss excess in the assay with D-263MG (Glioblastoma) was 0.0378; in [1], 0.025; with EW-24 (Ewing's Sarcoma), -0.1; in assay [2], 0.0565; in assay [3], -0.0123; in assay [4], -0.0579. Further, the Bliss excess was 0.0637 in [5]; 0.0474 in assay [6]; 0.0657 with NB69 (Neuroblastoma); 0.0494 in assay [7]; -0.0027 in assay [8]; 0.122 in assay [9]. Moreover, the Bliss excess is 0.0979 in assay [10]; 0.114 in assay [11]; -0.0076 in assay [12]; 0.0205 in assay [13]; 0.0706 in the assay with PWR-1E (Non-Cancerous); 0.0227 in [14]. For the same compound, the results for the Bliss excess (in assay [15]; with TK10 (Kidney Carcinoma)) were 0.0112 and 0.0018, respectively.
